# Data as given in US11492405B2, “Reducing systemic regulatory t cell levels or activity for treatment of disease and injury of the CNS” (Yeda Research and Development Co. Ltd, priority 2014, dated 2022).
# “Also recorded” adds a separate entry of the source.
# Experiments:
# [1] = system: 5XFAD AD-Tg mice; assay: Aβ plaque quantitation (immunohistochemistry) in 5XFAD AD-Tg mice; type: in vivo, mouse; conditions: AD-Tg/Foxp3-DTR+ mice, 3 weeks after last DTx injection
# Procedure: (§1) Tissue processing and immunohistochemistry were performed on paraffin embedded sectioned mouse (6 μm thick) and human (10 μm thick) brains. For human ICAM-1 staining, primary mouse anti-ICAM (1:20 Abcam; ab2213) antibody was used. Slides were incubated for 10 min with 3% H2O2, and a secondary biotin-conjugated anti-mouse antibody was used, followed by biotin/avidin amplification with Vectastain ABC kit (Vector Laboratories). Subsequently, 3,3′-diaminobenzidine (DAB substrate) (Zytomed kit) was applied; slides were dehydrated and mounted with xylene-based mounting solution. For tissue stainings, mice were transcardially perfused with PBS prior to tissue excision and fixation. CP tissues were isolated under a dissecting microscope (Stemi DV4; Zeiss) from the lateral, third, and fourth ventricles of the brain. For whole mount CP staining, tissues were fixated with 2.5% paraformaldehyde (PFA) for 1 hour at 4° C., and subsequently transferred to PBS containing 0.05% sodium azide. Prior to staining, the dissected tissues were washed with PBS and blocked (20% horse serum, 0.3% Triton X-100, and PBS) for 1 h at room temperature. Whole mount staining with primary antibodies (in PBS containing 2% horse serum and 0.3% Triton X-100), or secondary antibodies, was performed for 1 h at room temperature. Each step was followed by three washes in PBS. The tissues were applied to slides, mounted with Immu-mount (9990402, from Thermo Scientific), and sealed with cover-slips. For staining of sectioned brains, two different tissue preparation protocols (paraffin embedded or microtomed free-floating sections) were applied, as previously described (Baruch et al, 2013; Kunis et al, 2013). […] Microscopic analysis, was performed using a fluorescence microscope (E800; Nikon) or laser-scanning confocal microscope (Carl Zeiss, Inc.). The fluorescence microscope was equipped with a digital camera (DXM 1200F; Nikon), and with either a 20×NA 0.50 or 40×NA 0.75 objective lens (Plan Fluor; Nikon). […] For quantification of staining intensity, total cell and background staining was measured using ImageJ software (NIH), and intensity of specific staining was calculated, as previously described (Burgess et al, 2010). […]
# From each brain, 6 μm coronal slices were collected, and eight sections per mouse, from four different pre-determined depths throughout the region of interest (dentate gyrus or cerebral cortex) were immunostained. […]
# [2] = system: 5XFAD AD-Tg mice; assay: RT-qPCR of choroid plexus (CP) in 5XFAD AD-Tg mice; type: in vivo, mouse
# Procedure: Total RNA of the hippocampal dentate gyrus (DG) was extracted with TRI Reagent (Molecular Research Center) and purified from the lysates using an RNeasy Kit (Qiagen). Total RNA of the choroid plexus was extracted using an RNA MicroPrep Kit (Zymo Research). mRNA (1 μg) was converted into cDNA using a High Capacity cDNA Reverse Transcription Kit (Applied Biosystems). The expression of specific mRNAs was assayed using fluorescence-based quantitative real-time PCR (RT-qPCR). RT-qPCR reactions were performed using Fast-SYBR PCR Master Mix (Applied Biosystems). Quantification reactions were performed in triplicate for each sample using the standard curve method. Peptidylprolyl isomerase A (ppia) was chosen as a reference (housekeeping) gene. The amplification cycles were 95° C. for 5 s, 60° C. for 20 s, and 72° C. for 15 s. […] For ifn-γ and ppia gene analysis, the cDNA was pre-amplified in 14 PCR cycles with non-random PCR primers, thereby increasing the sensitivity of the subsequent real-time PCR analysis, according to the manufacturer's protocol (PreAmp Master Mix Kit; Applied Biosystems). mRNA expression was determined using TaqMan RT-qPCR, according to the manufacturer's instructions (Applied Biosystems). All RT-qPCR reactions were performed and analyzed using StepOne software V2.2.2 (Applied Biosystems). […]
# [3] = system: 5XFAD AD-Tg mice; assay: Immune cell / mo-Mϕ infiltration of brain in 5XFAD AD-Tg mice (flow cytometry, BM chimeras); type: in vivo, mouse
# Procedure: as §1, with “2013). The following primary antibodies were used: mouse anti-Aβ (1:300, Covance, #SIG-39320); rabbit anti-GFP (1:100, MBL, #598); rat anti-CD68 (1:300, eBioscience, #14-0681); rat anti-ICAM-1 (1:200, Abcam, #AB2213); goat anti-GFP (1:100, Abcam, #ab6658); rabbit anti-IBA-1 (1:300, Wako, #019-19741); goat anti-IL-10 (1:20, R&D systems, #AF519); rat anti-Foxp3 (1:20, eBioscience, #13-5773-80); rabbit anti-CD3 (1:500, Dako, #IS503); mouse anti-ZO-1, mouse anti-E-Cahedrin, and rabbit anti-Claudin-1 (all 1:100, Invitrogen, #33-9100, #33-4000, #51-9000); rabbit anti-GFAP (1:200, Dako, #Z0334).” for “2013).”
# [4] = system: 5XFAD AD-Tg mice; assay: RT-qPCR of hippocampus / brain parenchyma in 5XFAD AD-Tg mice; type: in vivo, mouse
# Procedure: Total RNA of the hippocampal dentate gyrus (DG) was extracted with TRI Reagent (Molecular Research Center) and purified from the lysates using an RNeasy Kit (Qiagen). Total RNA of the choroid plexus was extracted using an RNA MicroPrep Kit (Zymo Research). mRNA (1 μg) was converted into cDNA using a High Capacity cDNA Reverse Transcription Kit (Applied Biosystems). The expression of specific mRNAs was assayed using fluorescence-based quantitative real-time PCR (RT-qPCR). RT-qPCR reactions were performed using Fast-SYBR PCR Master Mix (Applied Biosystems). Quantification reactions were performed in triplicate for each sample using the standard curve method. Peptidylprolyl isomerase A (ppia) was chosen as a reference (housekeeping) gene. The amplification cycles were 95° C. for 5 s, 60° C. for 20 s, and 72° C. for 15 s. At the end of the assay, a melting curve was constructed to evaluate the specificity of the reaction. For ifn-γ and ppia gene analysis, the cDNA was pre-amplified in 14 PCR cycles with non-random PCR primers, thereby increasing the sensitivity of the subsequent real-time PCR analysis, according to the manufacturer's protocol (PreAmp Master Mix Kit; Applied Biosystems). mRNA expression was determined using TaqMan RT-qPCR, according to the manufacturer's instructions (Applied Biosystems). All RT-qPCR reactions were performed and analyzed using StepOne software V2.2.2 (Applied Biosystems). The following TaqMan Assays-on-Demand™ probes were used: Mm02342430_g1 (ppia) and Mm01168134_m1 (ifn-γ).
# For all other genes examined, the following primers were used: […]
# [5] = system: APP/PS1 mouse model of AD; conditions: weekly administration regimen; cited from earlier work
# [6] = AD-Tg/Foxp3-DTR+ mice, 3 weeks after last DTx injection
# [7] = weekly-GA vs untreated AD-Tg mice, age 6 m
substance,measurement,setting,value
Diphtheria toxin [DTx],cerebral Aβ plaque burden in hippocampal dentate gyrus and cerebral cortex (5th layer),[1],reduced
same,"CP mRNA expression of leukocyte trafficking molecules (icam1, cxcl10, ccl2)","[2]; AD-Tg/DTR+ vs DTx-treated AD-Tg/DTR− littermates, 1 day after last DTx injection",elevated mRNA expression
same,Foxp3+ Tregs among CD4+ T cells accumulated within the brain,[3]; [6],marked enrichment
same,numbers of CD45high/CD11bhigh mo-Mϕ and CD4+ T cells in brain parenchyma,[3]; [6],increased numbers; also recorded: elevated numbers
same,foxp3 and il10 mRNA expression in hippocampus,[4]; [6],increased expression
same,mRNA expression of pro-inflammatory cytokines il-12p40 and tnf-α in brain parenchyma,[4]; [6],reduced mRNA expression levels
Glatiramer acetate [GA],"CP epithelial expression of leukocyte trafficking molecules (icam1, cxcl10, ccl2)","[2]; weekly-GA, end of 1st or 4th week",upregulated
same,effect in the APP/PS1 mouse model of AD,[5],therapeutic effect
same,numbers of CD11bhighCD45high-expressing cells in hippocampus,"[3]; 2nd week of weekly-GA regimen, non-chimeric AD-Tg mice",increased numbers
same,homing of GFP+ mo-Mϕ to the CP and adjacent ventricular spaces,"[3]; weekly-GA vs vehicle, AD-Tg/CX3CR1GFP/+ BM chimeras",increased homing
same,neuroinflammation (hippocampal mRNA),"[4]; weekly-GA 100 μg s.c. over 4 weeks, 5XFAD AD-Tg mice",reduced neuroinflammation
same,hippocampal mRNA expression of anti-inflammatory cytokines IL-10 and TGF-β,[4]; [7],elevation
same,hippocampal mRNA expression of neurotropic factors IGF-1 and BDNF,[4]; [7],elevation
same,"hippocampal mRNA expression of pro-inflammatory cytokines TNF-α, IL-1β and IL-12p40",[4]; [7],reduced expression
